Results from patent publication US7435733B2, “Mineralocorticoid receptor modulator compounds and methods, and pharmaceutical compositions containing these compounds” (Ligand Pharmaceuticals, Inc., priority 2004, dated 2008).

Target: T1, human mineralocorticoid receptor protein (MR) (Homo sapiens, UniProt P08235)
T1 construct: made in house; host or cells: Spodoptera frugiperda Sf21 insect cells (baculovirus)
T1 sequence (P08235 1-984): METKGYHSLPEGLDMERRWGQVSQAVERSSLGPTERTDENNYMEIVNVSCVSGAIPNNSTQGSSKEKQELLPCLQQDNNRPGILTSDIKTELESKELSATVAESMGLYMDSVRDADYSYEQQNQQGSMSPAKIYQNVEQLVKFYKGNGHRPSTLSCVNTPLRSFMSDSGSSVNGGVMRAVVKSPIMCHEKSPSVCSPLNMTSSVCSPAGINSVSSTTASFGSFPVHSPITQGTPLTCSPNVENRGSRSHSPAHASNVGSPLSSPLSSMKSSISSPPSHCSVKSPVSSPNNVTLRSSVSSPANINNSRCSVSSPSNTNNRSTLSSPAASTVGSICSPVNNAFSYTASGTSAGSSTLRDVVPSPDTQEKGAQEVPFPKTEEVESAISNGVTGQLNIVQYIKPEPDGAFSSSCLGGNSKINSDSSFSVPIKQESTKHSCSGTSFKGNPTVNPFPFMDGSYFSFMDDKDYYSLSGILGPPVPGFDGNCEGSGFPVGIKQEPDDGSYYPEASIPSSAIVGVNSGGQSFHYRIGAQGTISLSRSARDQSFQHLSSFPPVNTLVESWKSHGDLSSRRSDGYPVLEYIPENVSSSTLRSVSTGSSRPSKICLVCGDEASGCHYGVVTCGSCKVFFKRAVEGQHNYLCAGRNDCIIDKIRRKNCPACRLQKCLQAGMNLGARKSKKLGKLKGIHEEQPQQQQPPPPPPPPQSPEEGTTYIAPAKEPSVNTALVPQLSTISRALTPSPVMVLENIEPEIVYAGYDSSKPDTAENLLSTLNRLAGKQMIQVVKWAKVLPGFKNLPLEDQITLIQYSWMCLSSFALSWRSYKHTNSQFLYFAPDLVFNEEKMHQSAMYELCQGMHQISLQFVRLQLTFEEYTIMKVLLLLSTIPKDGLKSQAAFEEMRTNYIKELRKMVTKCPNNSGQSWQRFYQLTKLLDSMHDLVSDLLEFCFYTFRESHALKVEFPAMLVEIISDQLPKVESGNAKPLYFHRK
Assay: Mineralocorticoid receptor binding assay ([3H]aldosterone displacement, MR lysate)
Details: baculovirus-expressed MR lysate from Sf21 cells; 2-4 nM [3H]aldosterone; 16 hours at 4° C.; Cheng-Prusoff from IC50
Procedure: A baculovirus expression plasmid comprising cDNA encoding the human mineralocorticoid receptor protein (MR) was prepared using standard techniques. See e.g. E. A. Allegretto et. al. 268 J. Biol. Chem., 26625 (1993); G. Srinivasan and B. Thompson, 4 Mol. Endo., 209 (1990); and D. R. O'Reilly et. al., in “Baculovirus Expression Vectors”, D. R. O'Reilly et. al., eds., W.H. Freeman, New York, N.Y., pp. 139-179 (1992). That expression plasmid was co-transfected together with wild type Autographa californica multiple nuclear polyhedrosis virus DNA into Spodopter frugiperda-21 (Sf-21) cells to generate recombinant virus comprising MR cDNA. See e.g. O'Reilly, D. R., Miller, L. K., Luckow, V. A., Regulation of expression of a baculovirus ecdysteroid UDP glucosyltransferase gene. “Baculovirus Expression Vectors.” WH Freeman, N.Y., 139-179 (1992). […]
After incubation, 200 μl of 6.25% hydroxylapatite in assay buffer was added to each assay sample to precipitate the protein. […] Radioactivity in counts per minute (CPM) of each washed pellet was determined by liquid scintillation counter (MicroBeta™, Wallach).
Specific binding for a particular sample was calculated using the equation: (Sample CPM)−(Average Non-specific CPM) Average Non-specific CPM was defined as the amount of radioactivity from samples comprising an excess (i.e. 1000 nM) of unlabeled aldosterone. […]

SMILES | Ki [nM]
O=C1Nc2ccc(-c3cccc(C(F)(F)F)c3)c3c2C(CCC3)O1 (racemic) [Compound 101, (±)-7,8,9,9a-Tetrahydro-6-[(3-trifluoromethyl)phenyl]-3H-naphtho[1,8-de][1,3]oxazin-2-one] | 335
N#Cc1cccc(-c2ccc3c4c2CCCC4OC(=O)N3)c1 (racemic) [Compound 102, (±)-7,8,9,9a-Tetrahydro-6-(3-cyanophenyl)-3H-naphtho[1,8-de][1,3]oxazin-2-one] | 650
